Where a name gives a salt, the structure may show the parent alone.
Experiments:
off-target kinases = details: reported by Aerie Pharmaceuticals; cited from earlier work
ROCK = details: cited from earlier work
[1] = tested on: neuroblastoma cell lines (IMR32, SJNB8, SKNBE, SY5Y, SHEP2, SKNAS); test: Light microscopy of phenotypical changes after ROCK inhibitor treatment; type: cell-based; details: 25µM, 65 hours; cell bodies smaller, more elongated, neurite outgrowths appear
[2] = tested on: neuroblastoma cell lines (SKNBE, IMR, SJNB8, SHEP2, SKNAS, SY5Y); test: MTT assay (cell viability); type: cell-based; details: for cell viability: all 6 neuroblastoma cell lines, 72 hours, 3 to 200 µM; for IC50: range over 6 neuroblastoma cell lines, 72 hours treatment, dose efficacy curves, read-out: IC50 (concentration drug needed for 50% cell viability reduction)
Protocol: To determine the sensitivity of the cell lines for the ROCK-inhibitors Y27632 and HA 1077 MTT assays were done. […] The IC50 (concentration drug needed for 50% cell viability reduction) of Y27632 determined by dose efficacy curves varied from 18 to 90 µM.
Cells were plated in a 10-30% confluence in a 96-well plate and treated after 24 hours with Y27632 (=Y27632 dihydrochloride; Tocris; Cat.nr. 1254) and HA1077 (=Fasudil hydrochloride; Tocris; Cat.nr. 0541) in a concentration ranging from 3 to 200 µM. 72 hours after treatment, 10 µl of Thyazolyl blue tetrazolium bromide (MTT, Sigma M2128) was added. After 4 hours of incubation 100 µl of 10% SDS, 0.01 M HCI was added to stop the reaction. The absorbance was measured at 570 nm and 720 nm using a platereader (biotech). The IC50 (concentration drug needed for 50% cell viability reduction) was calculated using concentration vector curves.

SHEP2 cells = test: Immunofluorescence (actin / tubulin staining); type: cell-based; details: 50 micromolar, 24 hours of treatment

| Structure (SMILES) | number of off-target kinases tested at which activity was seen (off-target kinases) | potency against ROCK (ROCK) | phenotype of the cells (light microscope) [1] | cell viability [2] | IC50 [2] [µM] | actin organization (phalloidin staining) (SHEP2 cells) | tubulin localization (SHEP2 cells) |
| --- | --- | --- | --- | --- | --- | --- | --- |
| CN(C)C(C(=O)Nc1ccc2c(=O)[nH]ccc2c1)c1ccsc1 (centres unmarked) [AR-12286] | 5 | nanomolar potency | – | – | – | – | – |
| C[C@@H](N)[C@H]1CC[C@H](C(=O)Nc2ccncc2)CC1 [Y27632, Y27632 dihydrochloride] | – | – | more neuronal-like (differentiated) phenotype | decrease in viability | 18 to 90 | – | – |
| O=S(=O)(c1cccc2cnccc12)N1CCCNCC1 [HA 1077, Fasudil hydrochloride] | – | – | more neuronal-like (differentiated) phenotype | decrease in viability | 15 to 45 | structured actin fibres (green) disappear | moves from a nuclear localization towards the cytoplasm |
| C[C@@H](N)c1ccc(C(=O)Nc2ccnc3[nH]ccc23)cc1 [Y-39983/SNJ-1656/RKI-983] | 25 | – | – | – | – | – | – |

— patent EP2628482A1, “Rho kinase inhiitors for use in the treatment of neuroblastoma” (Academisch Medisch Centrum, priority 2012, dated 2013)
